Assay [1] has as its system HDAC (nuclear fraction of Hela cells). Kind of assay: Assay of enzyme inhibition of HDAC (BIOMOL Kit). Particulars: substrate 200 μM, 15 min at RT. The assay is classed as biochemical. The method, boiled down: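 Enzyme source was HeLa nuclear fraction, incubated 15 min at RT with compound and an acetyl-lysine substrate at 200 μM. IC50 values were derived from concentration-response data.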

A further assay has as its system K562 cells. In words: Cell growth, CellTiter-Glo Luminescent Cell Viability Assay, K562. The assay is classed as cell-based. Conditions: Homo sapiens, 72 h incubation, read-out: IC50 antiproliferative assay K562. The method, boiled down:
(§1)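 Exponentially growing cells exposed 72 h to a range of inhibitor concentrations. Viability measured as cellular ATP by CellTiter-Glo luminescence (2 min lysis, read after 10 min RT); IC50 calculated and binned into ranges (≤1.0, 1.0–3.0, ≥3.0 μM).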
Background: Cellular ATP, detected with luciferase, serves as a proxy for viable cell number.

Another assay concerns A549 cells. Kind of assay: Cell growth, CellTiter-Glo Luminescent Cell Viability Assay, A549. The assay is classed as cell-based. Conditions: Homo sapiens, 72 h incubation, read-out: IC50 antiproliferative assay A549. The method, boiled down: as §1
In the next assay the test system is HCT-116 cells. Kind of assay: Cell growth, CellTiter-Glo Luminescent Cell Viability Assay, HCT-116. The assay is classed as cell-based. Conditions: Homo sapiens, HCT116 cells, 72 h incubation, read-out: IC50 antiproliferative assay HCT116. A digest of the protocol:
as §1

Broadly, the IC50 is the concentration that gives 50% inhibition.

SMILES strings stand for the structures. Some results are limits rather than exact numbers.

Take `Cn1c(CN2CCC3(CC2)CC(=O)c2cc(/C=C/C(=O)NO)ccc2O3)cc2ccccc21` [Example 64, (E)-3-{1′-(1-Methyl-1H-indol-2-ylmethyl)-4-oxo-spiro[chromane-2,4′-piperidine]-6-yl}-N-hydroxy-acrylamide]: the IC50 was in the range of 0.1 to 1 µM in assay [1], 1 to 3 µM with K562 cells, 1 to 3 µM in the assay with A549 cells and 1 to 3 µM in the assay on HCT-116 cells.
Consider `CCN1CCC2(CC1)CC(=O)c1cc(/C=C/C(=O)NO)ccc1O2` [Example 68, (E)-3-{1′-Ethyl-4-oxo-spiro[chromane-2,4′-piperidine]-6-yl}-N-hydroxy-acrylamide], for which the IC50 in assay [1] was < 0.1 µM; in the assay on K562 cells, ≤ 1 µM; with A549 cells it was ≤ 1 µM; in the assay with HCT-116 cells, ≤ 1 µM.
`CC(C)N1CCC2(CC1)CC(=O)c1cc(/C=C/C(=O)NO)ccc1O2` [Example 69, (E)-3-{1′-Isopropyl-4-oxo-spiro[chromane-2,4′-piperidine]-6-yl}-N-hydroxy-acrylamide]: the IC50 in assay [1] was 0.1 to 1 µM; in the assay with K562 cells, ≤ 1 µM; in the assay with A549 cells it was ≤ 1 µM; in the assay on HCT-116 cells it was ≤ 1 µM.
Regarding `O=C(/C=C/c1ccc2c(c1)C(=O)NC1(CCN(CCc3ccccc3)CC1)O2)NO` [Example 71, (E)-3-{1′-(2-Phenyl-ethyl)-3,4-dihydro-4-oxo-spiro[2H-(1,3)-benzoxazine-2,4′-piperidin]-6-yl}-N-hydroxy-acrylamide], the IC50 in assay [1] is < 0.1 µM; in the assay with K562 cells, ≤ 1 µM; in the assay with A549 cells it was 1 to 3 µM; in the assay on HCT-116 cells, ≤ 1 µM.
Take `O=C(/C=C/c1ccc2c(c1)C(=O)NC1(CCNCC1)O2)NO` [Example 72, (E)-3-{3,4-Dihydro-4-oxo-spiro[2H-(1,3)-benzoxazine-2,4′-piperidin]-6-yl}-N-hydroxy-acrylamide]: the half-maximal inhibitory concentration (IC50) is < 0.1 µM in assay [1], ≥ 3 µM in the assay on K562 cells, ≥ 3 µM in the assay with A549 cells and ≥ 3 µM in the assay with HCT-116 cells.
In the case of `CN1CCC2(CC1)NC(=O)c1cc(/C=C/C(=O)NO)ccc1O2` [Example 73, (E)-3-{1′-Methyl-3,4-dihydro-4-oxo-spiro[2H-(1,3)-benzoxazine-2,4′-piperidin]-6-yl}-N-hydroxy-acrylamide], the 50% inhibitory concentration (IC50) in assay [1] is < 0.1 µM; with K562 cells it was 1 to 3 µM; in the assay with A549 cells, 1 to 3 µM; in the assay on HCT-116 cells, ≤ 1 µM.
In the case of `O=C(/C=C/c1ccc2c(c1)C(=O)NC1(CCN(Cc3ccc(F)cc3)CC1)O2)NO` [Example 74, (E)-3-{1′-(4-Fluoro-benzyl)-3,4-dihydro-4-oxo-spiro[2H-(1,3)-benzoxazine-2,4′-piperidin]-6-yl}-N-hydroxy-acrylamide], the IC50 in assay [1] is 0.1 to 1 µM; in the assay on K562 cells, ≤ 1 µM; in the assay with A549 cells it was 1 to 3 µM; with HCT-116 cells, ≤ 1 µM.
As for `CN1C(=O)c2cc(/C=C/C(=O)NO)ccc2OC12CCN(Cc1ccc(F)cc1)CC2` [Example 75, (E)-3-{1′-(4-Fluoro-benzyl)-3,4-dihydro-3-methyl-4-oxo-spiro[2H-(1,3)-benzoxazine-2,4′-piperidin]-6-yl}-N-hydroxy-acrylamide], the IC50 is 0.1 to 1 µM in assay [1], ≤ 1 µM in the assay with K562 cells, 1 to 3 µM in the assay with A549 cells and ≤ 1 µM in the assay on HCT-116 cells.
In the case of `CN1C(=O)c2cc(/C=C/C(=O)NO)ccc2OC12CCN(Cc1ccccc1)CC2` [Example 76, (E)-3-{1′-Benzyl-3,4-dihydro-3-methyl-4-oxo-spiro[2H-(1,3)-benzoxazine-2,4′-piperidin]-6-yl}-N-hydroxy-acrylamide], the IC50 in assay [1] is 0.1 to 1 µM; in the assay with K562 cells it was 1 to 3 µM; in the assay with A549 cells it was 1 to 3 µM; in the assay on HCT-116 cells it was ≤ 1 µM.
In the case of `CN1C(=O)c2cc(/C=C/C(=O)NO)ccc2OC12CCN(CCc1ccccc1)CC2` [Example 77, (E)-3-{1′-(2-Phenyl-ethyl)-3,4-dihydro-3-methyl-4-oxo-spiro[2H-(1,3)-benzoxazine-2,4′-piperidin]-6-yl}-N-hydroxy-acrylamide], the half-maximal inhibitory concentration (IC50) in assay [1] is 0.1 to 1 µM; in the assay with K562 cells, ≤ 1 µM; with A549 cells, 1 to 3 µM; in the assay on HCT-116 cells it was 1 to 3 µM.
On to `CN1CCC2(CC1)Oc1ccc(/C=C/C(=O)NO)cc1C(=O)N2C` [Example 78, (E)-3-{1′-Methyl-3,4-dihydro-3-methyl-4-oxo-spiro[2H-(1,3)-benzoxazine-2,4′-piperidin]-6-yl}-N-hydroxy-acrylamide], for which the IC50 in assay [1] is 0.1 to 1 µM; in the assay with K562 cells it was 1 to 3 µM; with A549 cells, ≥ 3 µM; in the assay on HCT-116 cells, 1 to 3 µM.
For the compound `CN1C(=O)c2cc(/C=C/C(=O)NO)ccc2OC12CCNCC2` [Example 79, (E)-3-{3,4-Dihydro-3-methyl-4-oxo-spiro[2H-(1,3)-benzoxazine-2,4′-piperidin]-6-yl}-N-hydroxy-acrylamide], the IC50 in assay [1] was 0.1 to 1 µM; in the assay on K562 cells, ≥ 3 µM; in the assay with A549 cells it was ≥ 3 µM; in the assay on HCT-116 cells, ≥ 3 µM.
In the case of `O=C(/C=C/c1ccc2c(c1)C(=O)N(Cc1ccccc1)C1(CCN(Cc3ccccc3)CC1)O2)NO` [Example 80, (E)-3-{1′-Benzyl-3,4-dihydro-3-benzyl-4-oxo-spiro[2H-(1,3)-benzoxazine-2,4′-piperidin]-6-yl}-N-hydroxy-acrylamide], the IC50 fell in the range of 0.1 to 1 µM in assay [1], 1 to 3 µM with K562 cells, 1 to 3 µM with A549 cells and 1 to 3 µM in the assay with HCT-116 cells.
Consider `CN1CCC2(CC1)Oc1ccc(/C=C/C(=O)NO)cc1C(=O)N2Cc1ccccc1` [Example 81, (E)-3-{1′-Methyl-3,4-dihydro-3-benzyl-4-oxo-spiro[2H-(1,3)-benzoxazine-2,4′-piperidin]-6-yl}-N-hydroxy-acrylamide], for which the half-maximal inhibitory concentration (IC50) is 0.1 to 1 µM in assay [1], ≤ 1 µM with K562 cells, ≤ 1 µM in the assay with A549 cells and ≤ 1 µM in the assay with HCT-116 cells.
Take `O=C(/C=C/c1ccc2c(c1)C(=O)N(Cc1ccccc1)C1(CCN(Cc3ccc(F)cc3)CC1)O2)NO` [Example 83, (E)-3-{1′-(4-Fluoro-benzyl)-3,4-dihydro-3-benzyl-4-oxo-spiro[2H-(1,3)-benzoxazine-2,4′-piperidin]-6-yl}-N-hydroxy-acrylamide]: the IC50 in assay [1] is 0.1 to 1 µM; in the assay on K562 cells, 1 to 3 µM; in the assay with A549 cells, ≥ 3 µM; in the assay on HCT-116 cells it was 1 to 3 µM.
Consider `O=C(/C=C/c1ccc2c(c1)C(=O)N(Cc1ccccc1)C1(CCN(CCc3ccccc3)CC1)O2)NO` [Example 84, (E)-3-{1′-(2-Phenyl-ethyl)-3,4-dihydro-3-benzyl-4-oxo-spiro[2H-(1,3)-benzoxazine-2,4′-piperidin]-6-yl}-N-hydroxy-acrylamide], for which the half-maximal inhibitory concentration (IC50) is 0.1 to 1 µM in assay [1], 1 to 3 µM with K562 cells, 1 to 3 µM in the assay with A549 cells and 1 to 3 µM in the assay on HCT-116 cells.

The values are drawn from patent publication US9115148B2, “Spirocyclic derivatives as histone deacetylase inhibitors” (DAC S.R.L., priority 2008, dated 2015).
